From patent US6423342B1, “Process for the preparation of a solid pharmaceutical dosage form” (R. P. Scherer Corporation, priority 1995, dated 2002)
Where a name gives a salt, the structure may show the parent alone.

Columns and labels:
Format in all cases: physicochemical
[1] = Effect of pH modification (citric acid level) on stability of selegiline hydrochloride fast-dispersing dosage forms stored at 40° C./80% relative humidity; design: unit not given beside the values
Method: Gelatin (720 g) and mannitol (540 g) were dispersed in a portion of purified water (15.73 kg) by mixing thoroughly in the bowl of a vacuum mixer. The remaining water (1.5 litres) was added under vacuum while mixing using an anchor stirrer. The mix was then heated to 40° C.±2° C. and homogenized for ten minutes. The mix was cooled down to room temperature. When cooled, a 4500 g portion of the mix was removed into a stainless steel vessel and glycine (360 g), aspartame (90 g), grapefruit flavor (54 g), Opatint yellow (54 g) and citric acid (90 g) were then added sequentially to this portion while homogenizing using a bench top homogenizer. The remainder of the mix was transferred into a second stainless steel vessel. Selegiline hydrochloride (360 g) was then added to the mix in the second vessel and the mix homogenized for ten minutes using a bench top mixer to dissolve the drug. Once dispersion of the coloring agent was complete, the portion of the mix removed to the first vessel was returned to the mixer bowl together with the homogenized mix from the second vessel. The combined mixes were then mixed for at least 20 minutes. The bulk dispersion was then homogenized to ensure that mixing was complete.
(§1) 250 mg of the selegiline hydrochloride 2.0% dispersion formed in (a) above was dosed into each one of a series of pre-formed blister pockets having a pocket diameter of 12-mm. The blister laminate comprised 200 μm PVC/30 μm PE/PVDC 90 g per square metre. The product was frozen immediately in a liquid nitrogen freeze tunnel. The frozen product was then stored below −20° C. for a minimum of 24 hours prior to freeze-drying in a freeze drier using a drying temperature of +20° C. and a chamber pressure of 0.5 mbar. The freeze-dried units were then inspected for the presence of critical defects and the remainder of the batch sealed with lidding foil consisting of a paper/foil laminate (20 μm aluminium). Each blister was then coded with a batch number and over-wrapped in a preformed sachet by placing the blister in the sachet and sealing the open end of the sachet completely. Each sachet was then labeled with the product name, batch number, date of manufacture and suppliers name.
A series of dosage forms were manufactured as described in Example 1 but the quantity of citric acid used was varied. The dosage forms were then stored at 40° C./80% relative humidity for up to 7 weeks and the quantity of selegiline hydrochloride in these dosage forms was assayed at regular intervals.

[2] = Physical properties of the dosage form at varied citric acid level; conditions: citric acid levels higher than 0.5%; causing, for instance, cracking and base melting
From the text: It can be seen that a minimum level of 0.5% citric acid is required to inhibit this loss of selegiline.

[3] = Solution pH of the dispersion at varied citric acid concentration
[4] = Effect of storage in frozen state prior to drying on selegiline HCl assay of fast-dispersing dosage forms
Method: as §1
Two batches of selegiline fast-dispersing dosage forms manufactured as described in Example I were stored at different temperatures in the frozen state prior to drying.

C#CCN(C)C(C)Cc1ccccc1 (single isomer, unassigned; (-)) [selegiline hydrochloride, (−)-N,α-dimethyl-N-2-propynylphenethylamine]
quantity of selegiline hydrochloride in dosage form ([1]; citric acid 0 % w/w, solution pH 5.38, 1 week at 40° C./80% relative humidity): 3.86
quantity of selegiline hydrochloride in dosage form ([1]; citric acid 0 % w/w, solution pH 5.38, 2 week at 40° C./80% relative humidity): 3.31
quantity of selegiline hydrochloride in dosage form ([1]; citric acid 0 % w/w, solution pH 5.38, 4 week at 40° C./80% relative humidity): 3.32
quantity of selegiline hydrochloride in dosage form ([1]; citric acid 0 % w/w, solution pH 5.38, Time = 0): 4.79
quantity of selegiline hydrochloride in dosage form ([1]; citric acid 0.25 % w/w, solution pH 4.21, 1 week at 40° C./80% relative humidity): 4.70
quantity of selegiline hydrochloride in dosage form ([1]; citric acid 0.25 % w/w, solution pH 4.21, 2 week at 40° C./80% relative humidity): 4.67
quantity of selegiline hydrochloride in dosage form ([1]; citric acid 0.25 % w/w, solution pH 4.21, 4 week at 40° C./80% relative humidity): 4.74
quantity of selegiline hydrochloride in dosage form ([1]; citric acid 0.25 % w/w, solution pH 4.21, 7 week at 40° C./80% relative humidity): 4.65
quantity of selegiline hydrochloride in dosage form ([1]; citric acid 0.25 % w/w, solution pH 4.21, Time = 0): 4.95
quantity of selegiline hydrochloride in dosage form ([1]; citric acid 0.50 % w/w, solution pH 3.82, 1 week at 40° C./80% relative humidity): 4.98
quantity of selegiline hydrochloride in dosage form ([1]; citric acid 0.50 % w/w, solution pH 3.82, 2 week at 40° C./80% relative humidity): 4.98
quantity of selegiline hydrochloride in dosage form ([1]; citric acid 0.50 % w/w, solution pH 3.82, 4 week at 40° C./80% relative humidity): 4.98
quantity of selegiline hydrochloride in dosage form ([1]; citric acid 0.50 % w/w, solution pH 3.82, 7 week at 40° C./80% relative humidity): 4.96
quantity of selegiline hydrochloride in dosage form ([1]; citric acid 0.50 % w/w, solution pH 3.82, Time = 0): 5.05
quantity of selegiline hydrochloride in dosage form ([1]; citric acid 1.0 % w/w, solution pH 3.45, 1 week at 40° C./80% relative humidity): 5.03
quantity of selegiline hydrochloride in dosage form ([1]; citric acid 1.0 % w/w, solution pH 3.45, 2 week at 40° C./80% relative humidity): 5.04
quantity of selegiline hydrochloride in dosage form ([1]; citric acid 1.0 % w/w, solution pH 3.45, 4 week at 40° C./80% relative humidity): 5.05
quantity of selegiline hydrochloride in dosage form ([1]; citric acid 1.0 % w/w, solution pH 3.45, 7 week at 40° C./80% relative humidity): 5.00
quantity of selegiline hydrochloride in dosage form ([1]; citric acid 1.0 % w/w, solution pH 3.45, Time = 0): 5.07
quantity of selegiline hydrochloride in dosage form ([1]; citric acid 2.0 % w/w, solution pH 3.11, 1 week at 40° C./80% relative humidity): 4.99
quantity of selegiline hydrochloride in dosage form ([1]; citric acid 2.0 % w/w, solution pH 3.11, 2 week at 40° C./80% relative humidity): 5.01
quantity of selegiline hydrochloride in dosage form ([1]; citric acid 2.0 % w/w, solution pH 3.11, 4 week at 40° C./80% relative humidity): 5.02
quantity of selegiline hydrochloride in dosage form ([1]; citric acid 2.0 % w/w, solution pH 3.11, 7 week at 40° C./80% relative humidity): 4.96
quantity of selegiline hydrochloride in dosage form ([1]; citric acid 2.0 % w/w, solution pH 3.11, Time = 0): 5.04
effect on the physical properties of the dosage form [2]: deleterious effect
Solution pH ([3]; Conc. of citric acid 0 % w/w): 5.38
Solution pH ([3]; Conc. of citric acid 0.25 % w/w): 4.21
Solution pH ([3]; Conc. of citric acid 0.50 % w/w): 3.82
Solution pH ([3]; Conc. of citric acid 1.0 % w/w): 3.45
Solution pH ([3]; Conc. of citric acid 2.0 % w/w): 3.11
Assay Selegiline HCI ([4]; Frozen storage temperature −20 ° C. prior to drying, 2 week): 4.97 mg
Assay Selegiline HCI ([4]; Frozen storage temperature −20 ° C. prior to drying, 4 week): 4.98 mg
Assay Selegiline HCI ([4]; Frozen storage temperature −20 ° C. prior to drying, Time = 0): 5.01 mg
Assay Selegiline HCI ([4]; Frozen storage temperature −25 ° C. prior to drying, 1 week): 4.85 mg
Assay Selegiline HCI ([4]; Frozen storage temperature −25 ° C. prior to drying, 2 week): 4.79 mg
Assay Selegiline HCI ([4]; Frozen storage temperature −25 ° C. prior to drying, 4 week): 4.74 mg
Assay Selegiline HCI ([4]; Frozen storage temperature −25 ° C. prior to drying, Time = 0): 4.87 mg
